Laboratory results reported in PMC6155746 (Molecules : A Journal of Synthetic Chemistry and Natural …, 2017).
Where “and” joins values, the source holds several entries; their conditions need not be identical. Identical values can stand only once. Like-named read-outs stand apart in the source and are kept apart here. Blank lines part the entries; values can stand above or below the molecule they belong to.

Legend:
[1] = Permeability assay, everted rat gut model; type: in vitro ADME, Wistar rats; settings: for Papp at 120 min, 100 μM: male, Wistar, rat, everted rat gut, 37 °C, A-B
Description: Male Wistar rats weighing 200–250 g were used in this research. Everted intestinal sacs were prepared by quickly removing the small intestine from starved rats killed under ether anesthesia. All experiments were carried out after pre-incubation at 37 ± 0.5 °C, with the duodenum and jejunum then excised, flushed-through several times with saline solution at room temperature, and placed immediately into simulated intestinal fluid (SIF). The intestine was gently everted over a steel rod and filled with fresh SIF. The sacs were preincubated in oxygenated buffer solution for 5 min and then placed in 100 mL of oxygenated SIF solution containing 0.0001 M (100 μM) of Compound 1 at 37 °C. Oxygen was bubbled with a pump to maintain viable tissue.
The everted intestinal sac was filled with 1.5 mL of SIF solution, while a test compound solution (0.0001 M) remained external to the everted sac. […] 300 μL samples were collected from inside the sac with a metallic cannula at 5, 10, 15, 30, 45, 60, 90, and 120 min (apical-basolateral transport A-B), after which a medium replacement was made. Both an initial and final sample of the outside solution were analyzed by HPLC.
The apparent intestinal permeability (Papp) was calculated according to Equation (2): (2) Papp=V/(A∗Co)dC/dt where Papp = Apparent Permeability (cm/s), V = Intestinal Volume (mL), A = Surface Area (cm^2), dC/dt = Concentration Gradient, and, Co = Initial Concentration (μg/mL).

[2] = pKa determination via potentiometric analysis; type: physicochemical; settings: methanol/aqueous solution of ionic strength 0.02 M; Mean (±S.D.), potentiometric titration, triplicate; read-out: pKa1
Description: The determination of pKa was undertaken as described by Babic A. et al.. Compound 1 was prepared by weighing 0.001 equivalents, which were dissolved in the minimum volume of methanol, to which aqueous solution with an ionic strength of 0.02 M was added to obtain a final concentration for Compound 1 of 0.006 M. It was titrated with NaOH 0.01 N, which had been previously evaluated with an ionic strength of 0.02 M using Logger Pro 3.5.0 software (Vernier Software & Technology, Beaverton, OR, USA). The study was conducted in triplicate, determining the final points using the criteria from the first and second derivative test.

[3] = Apparent partition coefficient (octanol-water log D, shake-flask); type: physicochemical; settings: n-octanol/phosphate buffer
Description: The octanol-water distribution coefficient was determined using the shake-flask method. The two phases were mutually saturated by shaking for 15 min. Phosphate buffers were used as the aqueous phase for the pH range 1.2 to 13. 5 mL portions of different buffer solutions (pH 1.2 to 13) containing 100 μg/mL of Compound 1 were mixed with 2.5 mL of n-Octanol. The mixture was shaken for 30 min, centrifuged at 8000× g for 10 min, after which the aqueous and organic phases were separated. Aqueous samples were analyzed at 222 nm using a validated spectrophotometric method (5–200 μg·mL^−1). The distribution coefficient (log D) was calculated according to Equation (1) for each pH value: (1) Log D=log[Compound]org/[Compound ]aq where [Compound]org is the drug concentration in the organic phase (determined by mass balance) and [Compound]aq is the drug concentration in the aqueous phase for each buffer solution. Every experiment was evaluated in triplicate.

[4] = Bioavailability / pharmacokinetic study, oral and intravenous administration; type: in vivo, Wistar rats; design: average clearance (CL): unit not given here; settings: for half-life: read-out: T1/2el (converted)
Description: Male Wistar rats weighing 250–300 g were used for pharmacokinetic evaluation. Animals were individually identified by tail markings and acclimated to the study environment for seven days prior to the administration of the dose. Animals were kept on a 12 h light/dark cycle except when this was interrupted for study procedures. Animals were kept at average room temperature, which was regulated in the range of 18 to 29 °C. The animals were fasted prior to dose administration, and had access to water ad libitum.
Rats were anesthetized with ether and cannulated via the caudal vein using polyethylene tubing with an internal diameter of 0.023 inches, and an outer diameter of 0.038 inches (Becton Dickinson Clay Adams).
Compound 1 was prepared with Cremophore (10%) in physiologic saline solution and administered orally in a 50 mg/kg dose, and via intravenous bolus (50 mg/kg). Study was conducted in quintuplicate.
After dosing, serial blood samples were collected (0.2 mL) 0, 0.083, 0.16, 0.25, 0.33, 0.50, 0.75, 1.0, 1.5, 2.0, 3.0, 4.0, 6.0, and 8 h after both oral and intravenous administration using heparinized (20 UI) tubes, and were centrifuged at 5000× g for 10 min, with the plasma harvested and analyzed by HPLC using the previously validated method.
The pharmacokinetic parameters of Compound 1 were obtained via non-compartmental analysis using PK software (PKSolver). The STATA statistical program, version 12, was used for the comparison of the following: the pharmacokinetic parameters obtained via both administration pathways (Cmax and Tmax); the elimination rate constant (kel); the biological half-life; the area under the curve (AUC0–t); the area under the curve from zero to infinity (AUC0–∞); volume of distribution (Vd); clearance (Cl); and, absolute bioavailability (F).

[5] = tested on: 11β-hydroxysteroid dehydrogenase type 1 (11β-HSD1); design: method as in PMID 23597793; settings: at 10 μM, HEK293 cells; cited from earlier work
plasma glucose levels = tested on: plasma glucose levels; design: method as in PMID 23597793, PMID 23453304; settings: non-insulin dependent diabetes mellitus rat model, 7 h post-administration, Compound 1 at 50 mg/kg single dose; cited from earlier work
[6] = reported in the rat, oral; cited from earlier work
rat = settings: in vivo, po; cited from earlier work
[7] = duodenum, read-out: Papp Duodenum
[8] = jejunum, read-out: Papp Jejunum
[9] = Compound 1, intravenous, 50 mg/kg, Wistar rat, mean
[10] = Compound 1, oral, 50 mg/kg, Wistar rat, mean
[11] = male, plasma, Compound 1, intravenous, 50 mg/kg, Wistar rat, mean
[12] = male, plasma, Compound 1, oral, 50 mg/kg, Wistar rat, mean

Papp at 120 min, 100 μM [1, 7]: 8.52 ×10⁻⁶ cm/s
Papp at 120 min, 100 μM [1, 8]: 10 ×10⁻⁶ cm/s
SMILES: CC1(C)S[C@@H]2[C@H](NC(=O)[C@H](N)c3ccc(O)cc3)C(=O)N2[C@H]1C(=O)O [Amoxicillin, amoxicillin, reference compound]

SMILES: CC(C)(Oc1ccc(Cl)cc1)C(=O)Nc1nnn[nH]1 [Compound 1, 2-(4-chlorophenoxy)-2-methyl-N-(1H-tetrazol-5-yl) propanamide]
pKa [2]: 4.43
log D ([3]; pH 1 to 5): positive
Log D ([3]; pH 7): below zero
permeability classification ([1]; compared to the standards naproxen and amoxicillin): low permeability
Papp at 120 min, 100 μM [1, 7]: 8.73 ×10⁻⁶ cm/s
Papp at 120 min, 100 μM [1, 8]: 16.2 ×10⁻⁶ cm/s
average ABC0–α ([4]; Compound 1, intravenous): 38800 ng·h/mL
ABC0–t [4, 9]: 30.5 μg/mL·h
ABC0–α [4, 9]: 38.8 μg/mL·h
Cl [4, 9]: 484.5 mL/h
average ABC0–α ([4]; Compound 1, oral): 2580 ng·h/mL
average clearance (CL) ([4]; Compound 1, oral): 751.2
ABC0–t [4, 10]: 2.37 μg/mL·h
ABC0–α [4, 10]: 2.58 μg/mL·h
Cl [4, 10]: 751.2 mL/h
Ka [4, 10]: 3.05 h⁻¹
clearance ([4]; male, Wistar, rat, plasma, 50 mg/kg, Compound 1, intravenous, read-out: average clearance (CL) (converted)): 8.07 mL/min
half-life ([4]; male, Wistar, rat, plasma, iv, 50 mg/kg, Compound 1, intravenous, 50 mg/kg, Wistar rat, mean): 42.6 min
half-life ([4]; male, Wistar, rat, plasma, po, 50 mg/kg, Compound 1, oral, 50 mg/kg, Wistar rat, mean): ~22.8 min
Vd [4, 11]: 0.4 L and 1.3 L/kg
k el [4, 11]: 0.000336 s⁻¹
bioavailability ([4]; male, plasma, Compound 1, oral vs intravenous, 50 mg/kg, Wistar rat, mean): 10.4%
Cmax [4, 12]: 3570 ng/mL
Tmax [4, 12]: 19.8 min
k el [4, 12]: 0.000503 s⁻¹
inhibition of 11β-HSD1 [5]: 51.17%
reduction in glucose levels in the plasma (plasma glucose levels): up to 77%

SMILES: CC(C)(Oc1ccc(Cl)cc1)C(=O)O [Compound 2, Clofibric acid]
average lifetime (half-life) of clofibric acid [6]: 420 to 480 min
DL50 (rat): 940 mg/kg

SMILES: COc1ccc(Cl)cc1C(=O)NCCc1ccc(S(=O)(=O)NC(=O)NC2CCCCC2)cc1 [glibenclamide, reference compound]
reduction in glucose levels in the plasma (plasma glucose levels): 40%
